In PubChem BioAssay AID330 (DTP/NCI, 2004):
Several values for one entry are separate records, joined by “and”; a condition that tells them apart may be missing. Equal values may be shown once. Toxic doses and inconclusive results are not listed.

Test system: P388 leukemia ip, CD2F1 mice, survival T/C
Test: NCI In Vivo Anticancer Drug Screen. Data for tumor model P388 Leukemia (intraperitoneal) in CD2F1 (CDF1) mice
Details: endpoint: median survival time, higher = longer survival
How it was run: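 Mice carrying the transplanted tumor received test compound or vehicle. Survival was recorded in each group, and the value is the treated-group measurement divided by that of the vehicle-treated control group.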

[1] = dose: 60.0 mg/kg/injection, schedule: Q01DX005 (ip), vehicle: saline with Tween-80
[2] = dose: 120.0 mg/kg/injection, schedule: Q01DX005 (ip), vehicle: saline with Tween-80
[3] = dose: 50.0 mg/kg/injection, schedule: Q01DX009 (ip), vehicle: saline
[4] = dose: 50.0 mg/kg/injection, schedule: Q01DX005 (ip), vehicle: Klucel (hydroxypropylcellulose) (HPC)
[5] = dose: 100.0 mg/kg/injection, schedule: Q01DX005 (ip), vehicle: Klucel (hydroxypropylcellulose) (HPC)
[6] = dose: 200.0 mg/kg/injection, schedule: Q01DX005 (ip), vehicle: Klucel (hydroxypropylcellulose) (HPC)
[7] = dose: 100.0 mg/kg/injection, schedule: Q01DX009 (ip), vehicle: saline
[8] = dose: 200.0 mg/kg/injection, schedule: Q01DX009 (ip), vehicle: saline
[9] = dose: 50.0 mg/kg/injection, schedule: Q01DX009 (ip), vehicle: Klucel (hydroxypropylcellulose) (HPC)
[10] = dose: 100.0 mg/kg/injection, schedule: Q01DX009 (ip), vehicle: Klucel (hydroxypropylcellulose) (HPC)
[11] = dose: 200.0 mg/kg/injection, schedule: Q01DX009 (ip), vehicle: Klucel (hydroxypropylcellulose) (HPC)
[12] = dose: 50.0 mg/kg/injection, schedule: Q01DX009 (ip), vehicle: saline with Tween-80
[13] = dose: 100.0 mg/kg/injection, schedule: Q01DX009 (ip), vehicle: saline with Tween-80
[14] = dose: 200.0 mg/kg/injection, schedule: Q01DX009 (ip), vehicle: saline with Tween-80
[15] = dose: 100.0 mg/kg/injection, schedule: Q01DX009 (ip), vehicle: other
[16] = dose: 200.0 mg/kg/injection, schedule: Q01DX009 (ip), vehicle: other
[17] = dose: 400.0 mg/kg/injection, schedule: Q01DX009 (ip), vehicle: other
[18] = dose: 50.0 mg/kg/injection, schedule: Q01DX009 (ip), vehicle: other

COC(=O)C1(c2ccccc2)N=C(c2ccc(C)cc2)ON1c1ccccc1 (configuration not stated)
T/C [1]: 107 % of control
T/C [2]: 95 % of control
T/C (dose: 240.0 mg/kg/injection, schedule: Q01DX005 (ip), vehicle: saline with Tween-80): 92 % of control

NCC(=O)c1ccc(O)c(O)c1
T/C (dose: 25.0 mg/kg/injection, schedule: Q01DX009 (ip), vehicle: saline): 100 % of control
T/C (dose: 25.0 mg/kg/injection, schedule: Q04DX003 (ip), vehicle: saline with Tween-80): 108 % of control
T/C [3]: 113 % of control
T/C (dose: 50.0 mg/kg/injection, schedule: Q04DX003 (ip), vehicle: saline with Tween-80): 108 % of control
T/C (dose: 100.0 mg/kg/injection, schedule: Q04DX003 (ip), vehicle: saline with Tween-80): 104 % of control and 121 % of control

CC(=O)Nc1nc(Cl)c2ncn(C3CC(OC(=O)c4ccc(C)cc4)C(COC(=O)c4ccc(C)cc4)O3)c2n1 (configuration not stated)
T/C (dose: 12.5 mg/kg/injection, schedule: Q01DX005 (ip), vehicle: Klucel (hydroxypropylcellulose) (HPC)): 97 % of control
T/C (dose: 25.0 mg/kg/injection, schedule: Q01DX005 (ip), vehicle: Klucel (hydroxypropylcellulose) (HPC)): 90 % of control
T/C [4]: 97 % of control and 100 % of control
T/C [5]: 95 % of control and 98 % of control
T/C [6]: 97 % of control and 103 % of control

CC(=O)Nc1c(Cl)nc2cc(N(C)C)ccc2c1Cl
T/C (dose: 60.0 mg/kg/injection, schedule: Q01DX005 (ip), vehicle: Klucel + Tween-80): 97 % of control
T/C (dose: 120.0 mg/kg/injection, schedule: Q01DX005 (ip), vehicle: Klucel + Tween-80): 96 % of control
T/C (dose: 240.0 mg/kg/injection, schedule: Q01DX005 (ip), vehicle: Klucel + Tween-80): 97 % of control

Cn1cnc([N+](=O)[O-])c1[Se]c1nc(N)nc2c1ncn2C1OC(CO)C(O)C1O (configuration not stated)
T/C (dose: 2.0 mg/kg/injection, schedule: Q01DX009 (ip), vehicle: distilled water + Tween-80): 116 % of control
T/C (dose: 4.0 mg/kg/injection, schedule: Q01DX009 (ip), vehicle: distilled water + Tween-80): 121 % of control
T/C (dose: 32.0 mg/kg/injection, schedule: Q01DX009 (ip), vehicle: distilled water + Tween-80): 160 % of control
T/C (dose: 32.0 mg/kg/injection, schedule: Q01DX009 (ip), vehicle: water): 175 % of control
T/C (dose: 64.0 mg/kg/injection, schedule: Q01DX009 (ip), vehicle: water): 100 % of control

CN(C)CCC(=O)c1ccc(O)cc1
T/C [3]: 98 % of control
T/C [7]: 105 % of control
T/C [8]: 106 % of control

Cc1[nH]c2ccc(N(C)C)cc2c(=O)c1C
T/C (dose: 12.5 mg/kg/injection, schedule: Q01DX009 (ip), vehicle: Klucel (hydroxypropylcellulose) (HPC)): 96 % of control
T/C (dose: 25.0 mg/kg/injection, schedule: Q01DX009 (ip), vehicle: Klucel (hydroxypropylcellulose) (HPC)): 104 % of control and 107 % of control
T/C [9]: 100 % of control and 103 % of control and 123 % of control
T/C [10]: 102 % of control and 103 % of control and 107 % of control
T/C [11]: 112 % of control

O=C1C=CC2(C=C1)CCN(C(=O)C(F)(F)F)Cc1cc3c(cc12)OCO3
T/C (dose: 100.0 mg/kg/injection, schedule: Q04DX002 (ip), vehicle: saline with Tween-80): 97 % of control
T/C (dose: 200.0 mg/kg/injection, schedule: Q04DX002 (ip), vehicle: saline with Tween-80): 91 % of control
T/C (dose: 400.0 mg/kg/injection, schedule: Q04DX002 (ip), vehicle: saline with Tween-80): 93 % of control

CC(Cl)C(=O)c1ccc(N)cc1 (configuration not stated)
T/C [9]: 99 % of control
T/C [10]: 99 % of control
T/C [11]: 99 % of control

Nc1ccc2ccc3ccc(N)nc3c2n1
T/C [1]: 103 % of control
T/C [2]: 91 % of control

Cc1ccc(NC(=S)NNC(=O)CN2C(=O)c3ccccc3C2=O)cc1
T/C (dose: 12.5 mg/kg/injection, schedule: Q01DX001 (ip), vehicle: Klucel (hydroxypropylcellulose) (HPC)): 93 % of control
T/C (dose: 25.0 mg/kg/injection, schedule: Q01DX001 (ip), vehicle: Klucel (hydroxypropylcellulose) (HPC)): 93 % of control
T/C (dose: 50.0 mg/kg/injection, schedule: Q01DX001 (ip), vehicle: Klucel (hydroxypropylcellulose) (HPC)): 89 % of control and 90 % of control

O=[N+]([O-])c1ccc(C=Nc2ccc3c4c(cccc24)-c2ccccc2-3)cc1
T/C [12]: 101 % of control
T/C [13]: 90 % of control
T/C [14]: 108 % of control

CCCCCCCCCCCC(=O)CCCCC
T/C [15]: 90 % of control
T/C [16]: 100 % of control
T/C [17]: 104 % of control

CCCCCCCC/C=C\CCCCCCCC(=O)OCCN(CCOC(=O)CCCCCCC/C=C\CCCCCCCC)C(=O)c1ccccc1
T/C [12]: 116 % of control
T/C [13]: 97 % of control
T/C [14]: 111 % of control

CS(=O)(=O)OCCN(CCOS(C)(=O)=O)c1ccc(N=Nc2ccccc2)cc1
T/C (dose: 12.5 mg/kg/injection, schedule: Q01DX009 (ip), vehicle: saline with Tween-80): 156 % of control and 176 % of control
T/C (dose: 25.0 mg/kg/injection, schedule: Q01DX009 (ip), vehicle: saline with Tween-80): 160 % of control

Clc1cc(Cl)c2n[se]nc2n1
T/C (dose: 25.0 mg/kg/injection, schedule: Q04DX002 (ip), vehicle: saline): 100 % of control
T/C (dose: 50.0 mg/kg/injection, schedule: Q04DX002 (ip), vehicle: saline): 106 % of control
T/C (dose: 100.0 mg/kg/injection, schedule: Q04DX002 (ip), vehicle: saline): 116 % of control and 123 % of control

COc1cc2c(cc1OC)-c1[nH]ncc1CC2
T/C [12]: 101 % of control
T/C [13]: 101 % of control
T/C [14]: 106 % of control

ClC1(Cl)CC1[Se]c1ccccc1 (configuration not stated)
T/C [3]: 100 % of control
T/C [7]: 102 % of control
T/C [8]: 99 % of control

Cc1ccc(S(=O)(=O)OC(C#N)c2ccccc2)cc1 (configuration not stated)
T/C [9]: 111 % of control
T/C [10]: 102 % of control
T/C [11]: 100 % of control
T/C (dose: 400.0 mg/kg/injection, schedule: Q01DX009 (ip), vehicle: Klucel (hydroxypropylcellulose) (HPC)): 106 % of control

CC(C)(O)C1COC2=C1C(=O)c1ccccc1C2=O (configuration not stated)
T/C [18]: 94 % of control
T/C [15]: 107 % of control

CCN(CC)c1ccc(CCc2ccc(N(CC)CC)c3cccnc23)c2ncccc12
T/C [4]: 99 % of control
T/C [5]: 112 % of control
T/C [6]: 94 % of control

CCOC(=O)C(CC(=O)O)Cc1cccc(OC)c1OC (configuration not stated)
T/C (dose: 25.0 mg/kg/injection, schedule: Q01DX009 (ip), vehicle: other): 101 % of control
T/C [18]: 100 % of control
T/C [15]: 111 % of control
T/C [16]: 97 % of control
T/C [17]: 93 % of control

O=S1(=O)CCCO1
T/C (dose: 100.0 mg/kg/injection, schedule: Q04DX003 (ip), vehicle: saline): 100 % of control
T/C (dose: 200.0 mg/kg/injection, schedule: Q04DX003 (ip), vehicle: saline): 118 % of control

CCN1c2ccccc2C(Cl)(c2ccc(N(C)C)cc2)c2ccccc21
T/C (dose: 6.25 mg/kg/injection, schedule: Q01DX009 (ip), vehicle: saline): 116 % of control
T/C (dose: 12.5 mg/kg/injection, schedule: Q01DX009 (ip), vehicle: saline): 120 % of control

Cc1nc2ccc(Br)cc2c(=O)n1-c1ccc(-c2n[nH]c(=S)n2-c2ccccc2)cc1
T/C [4]: 102 % of control
T/C [5]: 104 % of control
T/C [6]: 104 % of control

CCOC(=O)CC(=O)c1sc(Nc2ccccc2)c(C#N)c1N
T/C (dose: 50.0 mg/kg/injection, schedule: Q01DX005 (ip), vehicle: saline with Tween-80): 98 % of control
T/C (dose: 100.0 mg/kg/injection, schedule: Q01DX005 (ip), vehicle: saline with Tween-80): 90 % of control
T/C (dose: 200.0 mg/kg/injection, schedule: Q01DX005 (ip), vehicle: saline with Tween-80): 90 % of control

O=C(O)c1cc(-c2cccc3ccccc23)nc2cc3ccccc3cc12
T/C [12]: 106 % of control and 94 % of control
T/C [13]: 100 % of control
T/C [14]: 102 % of control
T/C (dose: 400.0 mg/kg/injection, schedule: Q01DX009 (ip), vehicle: saline with Tween-80): 118 % of control

CCC(C)C(NC(=O)OC(C)(C)C)C(=O)O (configuration not stated)
T/C [4]: 103 % of control
T/C [5]: 100 % of control
T/C [6]: 100 % of control

CC(N)CN1C=NC(C)C1 (configuration not stated)
T/C [3]: 97 % of control
T/C [7]: 103 % of control
T/C [8]: 94 % of control

O=C1N[C@@H]2C(=C[C@H](O)[C@@H](O)[C@H]2O)c2cc3c(c(O)c21)OCO3
T/C (dose: 0.62 mg/kg/injection, schedule: Q01DX009 (ip), vehicle: saline with Tween-80): 110 % of control
T/C (dose: 5.0 mg/kg/injection, schedule: Q01DX009 (ip), vehicle: saline with Tween-80): 100 % of control
T/C (dose: 10.0 mg/kg/injection, schedule: Q01DX009 (ip), vehicle: saline with Tween-80): 87 % of control
